Assays:
[1] = test system: PPIs identified as affected by the SH3 domain deletions; assay: Liquid DHFR-PCA low-throughput validation of PPIs affected by SH3 deletion (Fig. S1D-E); type: cell-based, Saccharomyces cerevisiae; settings: label = prey, liquid DHFR-PCA, prey _1 = lost, _2 = gained in screen
Description: Liquid DHFR-PCA low-throughput experiments were performed to validate the PPIs identified as affected by the SH3 domain deletions in the high-throughput solid DHFR-PCA screen (256 PPIs weaker or lost and 116 PPIs stronger or gained following domain deletions). Mating and the diploid selection were performed as described for the large-scale experiment, with the exception that the plates were in 384 formats. Following the second diploid selection, diploid cells were inoculated in a 96 v-shaped well plate using a robotically manipulated 96 pin tool in a synthetic complete medium with MSG at pH 6.0 with NAT and HPH. After 48 h of growth, optical density (OD) was read using a TECAN Infinite F200 Pro, and dilutions to 1 OD in sterile nanopure water were prepared. Cells were then diluted to 0.1 OD by combining 25 µl of cell suspension at OD = 1 and 225 µl of PCA selection media without agar in a 96-wells plate. Plates were incubated at 30 °C in a TECAN Infinite M Nano and OD was monitored each 15 min for 72 h.

ABP1 = assay: DHFR-PCA on solid medium, bait ABP1 (Fig. 1B); type: cell-based, Saccharomyces cerevisiae; settings: bait ABP1, label = prey; for medrep (log2 median colony size normalized to plate background, PCA score): 2-4 replicates
Description: Supplement 41467_2021_21873_MOESM8_ESM.xlsx, sheet "Fig1B" | column: medsize; medrep; Ratio; Score

Substance: YDL229W_2
- Ratio (Deletedscore / WTscore) ([1]; bait BOI1): 1.5

Substance: YDL229W_1
- Ratio (Deletedscore / WTscore) ([1]; bait CDC25): 0.6311

Substance: YLR370C_1
- Ratio (Deletedscore / WTscore) ([1]; bait BZZ1-1): 0.6354

Substance: YIL062C_1
- Ratio (Deletedscore / WTscore) ([1]; bait BZZ1-1): 0.7418

Substance: YBR234C_1
- Ratio (Deletedscore / WTscore) ([1]; bait BUD14): 0.744

Substance: YBL017C_2
- Ratio (Deletedscore / WTscore) ([1]; bait ABP1): 1.35
- Ratio (Deletedscore / WTscore) ([1]; bait LSB3): 1.844

Substance: YBR109C_1
- Ratio (Deletedscore / WTscore) ([1]; bait MYO5): 0.9988

Substance: YER166W_1
- Ratio (Deletedscore / WTscore) ([1]; bait RVS167): 0.4913

Substance: YGL206C_1
- Ratio (Deletedscore / WTscore) ([1]; bait BBC1): 0.7295
- Ratio (Deletedscore / WTscore) ([1]; bait BOI1): 1.003
- Ratio (Deletedscore / WTscore) ([1]; bait HOF1): 0.9141

Substance: YDR170C_1
- Ratio (Deletedscore / WTscore) ([1]; bait RVS167): 0.751

Substance: YER155C_1
- Ratio (Deletedscore / WTscore) ([1]; bait BOI1): 0.8689
- Ratio (Deletedscore / WTscore) ([1]; bait BOI2): 0.775
- Ratio (Deletedscore / WTscore) ([1]; bait BUD14): 0.7098

Substance: YKL013C_1
- Ratio (Deletedscore / WTscore) ([1]; bait BZZ1-1): 0.9908
- Ratio (Deletedscore / WTscore) ([1]; bait BZZ1-2): 1.121
- Ratio (Deletedscore / WTscore) ([1]; bait MYO5): 0.8543

Substance: YAL005C_2
- Ratio (Deletedscore / WTscore) ([1]; bait BOI1): 0.8346
- Ratio (Deletedscore / WTscore) ([1]; bait CYK3): 1.208
- Ratio (Deletedscore / WTscore) ([1]; bait HOF1): 1.323
- Ratio (Deletedscore / WTscore) ([1]; bait): 1.478

Substance: YDR170C
- medrep (log2 median colony size normalized to plate background, PCA score) (ABP1): 2.657
- Ratio (SH3-deleted/WT medrep) (ABP1; only significant differences showed, PPIs completely lost have a ratio of 0.1 and the gained PPIs 2.5): 1.547

Substance: YDR265W_2
- Ratio (Deletedscore / WTscore) ([1]; bait BEM1-1): 1.494
- Ratio (Deletedscore / WTscore) ([1]; bait): 1.155

Substance: YDR170C_2
- Ratio (Deletedscore / WTscore) ([1]; bait ABP1): 1.267
- Ratio (Deletedscore / WTscore) ([1]; bait LSB3): 1.852

Substance: YPR184W_2
- Ratio (Deletedscore / WTscore) ([1]; bait LSB3): 1.832

Substance: YOR181W_1
- Ratio (Deletedscore / WTscore) ([1]; bait BBC1): 0.634
- Ratio (Deletedscore / WTscore) ([1]; bait LSB1): 0.5295
- Ratio (Deletedscore / WTscore) ([1]; bait LSB3): 0.6909
- Ratio (Deletedscore / WTscore) ([1]; bait MYO3): 0.5123
- Ratio (Deletedscore / WTscore) ([1]; bait MYO5): 0.7615
- Ratio (Deletedscore / WTscore) ([1]; bait PIN3): 0.5418

Substance: YIL062C_2
- Ratio (Deletedscore / WTscore) ([1]; bait HSE1): 1.213

Substance: YPR154W (EYVEALYQFDPQQDGDLGLKPGDKVQLLEKLSPEWYKGSCNGRTGIFPANYVKPAF)
- medrep (log2 median colony size normalized to plate background, PCA score) (ABP1): 1.556

Substance: YLL040C_1
- Ratio (Deletedscore / WTscore) ([1]; bait LSB3): 0.505

Substance: YGL206C_2
- Ratio (Deletedscore / WTscore) ([1]; bait BEM1-2): 1.078
- Ratio (Deletedscore / WTscore) ([1]; bait BZZ1-1): 0.8702
- Ratio (Deletedscore / WTscore) ([1]; bait BZZ1-2): 1.646

Source: paper PMC7954794, “Protein context shapes the specificity of SH3 domain-mediated interactions in vivo” (Nature Communications, 2021)
